Measurements taken from patent publication US20220313803A1, “NOVEL NEOANTIGENS AND CANCER IMMUNOTHERAPY USING SAME” (BRIGHTPATH BIOTHERAPEUTICS CO., LTD., priority 2019, published 2022).
Entries after “also recorded” stand apart in the source; their conditions may differ.

T1: PIK3CA H1047R peptide on HLA-DRB1*04:05 (human)
T1 peptide: ALEYFMKQMNDARHG

T2: PIK3CA H1047R peptide on HLA-DRB1*04:05 (human)
T2 peptide: FMKQMNDARHGGWT

T3: PIK3CA H1047R peptide on HLA-DRB1*04:05 (human)
T3 peptide: LEYFMKQMNDARHGG

T4: PIK3CA H1047R peptide on HLA-DRB1*04:05 (human)
T4 peptide: EALEYFMKQMNDARH

T5: PIK3CA wild-type peptide on HLA-DRB1*04:05 (human)
T5 peptide: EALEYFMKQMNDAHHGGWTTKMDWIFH

T6: PIK3CA H1047R peptide on HLA-DRB1*04:05 (human)
T6 peptide: YFMKQMNDARHGGW

T7: PIK3CA H1047R peptide on HLA-DRB1*04:05 (human)
T7 peptide: MKQMNDARHGGWTT

T8: PIK3CA H1047R peptide on HLA-DRB1*04:05 (human)
T8 peptide: EYFMKQMNDARHGGW

B1: TCR of the donor No. 9-derived PIK3CA-H1047R-specific T cells (SEQ ID NOs 29 and 30) (TCR, V domains shown)
Valpha: QQVKQSPQSLIVQKGGISIINCAYENTAFEYFPWYQQFPGKGPALLIAIRPDVSEKKEGRFTISFNKSAKQFSLHIMDSQPGDSATYFCAASGSYNNNDMRFGAGTRLTVKP
Vbeta: NAGVTQTPKFQVLKTGQSMTLQCAQDMNHEYMSWYRQDPGMGLRLIHYSVGAGITDQGEVPNGYNVSRSTTEDFPLRLLSAAPSQTSVYFCASSYASPGTGYSGELFFGEGSRLTVL

What was measured:
[1] = test system: antigen-specific T cells (CD4 or CD8-positive) from healthy human PBMCs; experiment: Immunogenicity evaluation of peptides with healthy human PBMCs (ICS for IFNy or IFNy ELISA); type: cell-based; details: for activation of CD8-positive cells: donor No. 9; for immunogenicity as HLA Class I / Class II epitope / activation of CD4-positive T cells: healthy donor PBMCs; for activation of CD4-positive T cells: CD4-positive IFNy-producing cells; for samples in which the peptide had immunogenicity (positive/tested): single peptide re-analysis, 24 donors (Mix-1, Mix-2 peptides) or 25 donors (Mix-3 peptides)
Text: Peripheral blood mononuclear cells (PBMCs) that were those of a lot containing HLA-A*24:02 or A*02:01 of purified normal human PBMCs (Precision Bioservice, 93000-10M or -50M), were selected and used. Alternatively, PBMCs were separated and collected by density gradient centrifugation from peripheral blood provided by 10 healthy volunteers (including those of HLA-A*24:02 or A*02:01) recruited at the Kanagawa Cancer Center Research Institute, and were used in the experiment.
Healthy human PBMCs of 2×10^6 cells were cultured (a CO2 incubator; 5% CO2 and at 37° C.) for 7 days in the presence of the peptides to be evaluated (2, 2.5 or 5 μg/mL, and in the case of Mix (described later), 2 lag/mL for each peptide), and then the cells were collected. AIM-V medium (Thermo Fisher Scientific K.K., 12055-091) supplemented with a 5% human serum (NIP Biomedicals, 2931949) was used as medium.
On the other hand, the PBMCs of the same lot were cultured in the presence of a GM-CSF and IL-4 for 7 days to differentiate into dendritic cells (DC), and a part thereof was cryopreserved.
Cell stimulation for evaluation of immunogenicity was carried out according to the method outlined in FIG. 2. Namely, the PBMCs stimulated with the peptide for 7 days were collected and co-cultured in the presence of DC (1×10^5 cells) treated with a mitomycin C (60 μg/mL, Kyowa Kirin Co., Ltd.), each peptide (2, 2.5 or 5 μg/mL), and 0.1 KE/mL of OK-432 (for injection of Picibanil, Chugai Pharmaceutical Co., Ltd.). An IL-2 (PeproTech, Inc., AF-200-02) was added at 10 IU/mL on the second day of the co-culture (Day 9 with the stimulation start date as Day 0), and the cells were further cultured for 5 days.
After culturing (Day 14), the cells were collected, the cryopreserved DC was thawed, and the cells were co-cultured again in the presence of the same concentration of each peptide for 7 days. The cells cultured for a total of 21 days were collected, and activation of antigen-specific T cells was confirmed by intracellular cytokine staining (ICS) or IFNy ELISA. For evaluation, the PBMCs for 24 donors (of Mix-1 and Mix-2) or the PBMCs for 25 donors (of Mix-3) (the donor numbers 1 to 10 are derived from healthy volunteers, and the donor numbers with 3 digits were purchased from Precision Bioservice, Inc.), were used. In this study, 10 kinds of peptides designed from the sequences containing the driver mutations in Example 1 and synthesized (SEQ ID NO: 1 to SEQ ID NO: 10) were mixed to the following mixtures containing 3 to 4 kinds of peptides (see FIG. 4): Mix-1: a mixture of KRA S-G 1 2C (SEQ ID NO: 3), NRAS-Q61K (SEQ ID NO: 6) and PIK3CA-H1047R (SEQ ID NO: 8); Mix-2: a mixture of KRAS-G12V (SEQ ID NO: 2), NRAS-Q61R (SEQ ID NO: 7), and PIK3CA-E545K (SEQ ID NO: 9); and Mix-3: a mixture of KRAS-G12D (SEQ ID NO: 1), KRAS-G12R (SEQ ID NO: 4), KRAS-G13D (SEQ ID NO: 5), and C-Kit-D816V (SEQ ID NO: 10). First, activation of antigen-specific T cells by stimulation with each Mix was observed, and when the activation was observed, the T cells were stimulated in the presence of each peptide alone to identify a peptide having immunogenicity. The presence or absence of activation was determined by the ICS (IFNy) or ELISA (IFNy in the culture supernatant).
Intracellular cytokine staining (ICS) was carried out according to the following procedure. The cells (5.0×10^4 cells) cultured for 21 days in the presence of the peptide and collected in the present Example, and antigen-presenting cells (APC) (autologous DC; 5×10^3 cells) were placed in a 96-well U bottom plate and cultured for 2 hours in the presence of the peptide. 10 μg/mL of Brefeldin A (Merck KGaA, B7651) was added to the cells to culture for 20 to 24 hours. […]

[2] = test system: PIK3CA-H1047R-specific TCR-T cells; experiment: Antigen specificity of TCR-T cells (IFNy-producing cells by flow cytometer); type: cell-based, human; details: TCR-T cells co-cultured with APC (donor No. 9-derived EB virus immortalized B cells) in the presence of the peptide, 20 to 24 hours
Method: Via a retrovirus vector (donated by Toyama University) to which the TCRa chain gene (SEQ ID NO: 29) and TCRI3 chain gene (SEQ ID NO: 30) identified in Example 5 derived from the donor No. 9-derived PIK3CA-H1047R-specific T cells were inserted, a cell line (TCR-T cell) expressing the TCR gene was prepared by introducing the PIK3CA-H1047R-specific TCR gene into T cells derived from healthy subjects. The prepared TCR-T cells (TCR gene-expressing cell line) (5.0×10^4 cells as T cells) and APC (donor No. 9-derived EB virus immortalized B cells; 5×10^3 cells) were cultured in a 96 well U bottom plate for 20 to 24 hours in the presence of the antigen peptide (PIK3CA-H1047R (SEQ ID NO: 8)) or the wild-type peptide thereof ([…]), then the cultured cells were collected, and antigen specificity was confirmed by detecting IFNy-producing cells with a flow cytometer.

[3] = target: T1, PIK3CA H1047R peptide on HLA-DRB1*04:05; experiment: cytokine release
[4] = target: T2, PIK3CA H1047R peptide on HLA-DRB1*04:05; experiment: cytokine release
[5] = target: T3, PIK3CA H1047R peptide on HLA-DRB1*04:05; experiment: cytokine release
[6] = target: T4, PIK3CA H1047R peptide on HLA-DRB1*04:05; experiment: cytokine release
[7] = target: T5, PIK3CA wild-type peptide on …; experiment: cytokine release
[8] = target: T6, PIK3CA H1047R peptide on HLA-DRB1*04:05; experiment: cytokine release
[9] = target: T7, PIK3CA H1047R peptide on HLA-DRB1*04:05; experiment: cytokine release
[10] = target: T8, PIK3CA H1047R peptide on HLA-DRB1*04:05; experiment: cytokine release

Molecule | activation of CD8-positive cells [1] | immunogenicity as HLA Class I / Class II epitope [1] | activation of CD4-positive T cells [1] | samples in which the peptide had immunogenicity (positive/tested) [1] | frequency of IFNy-producing cells [2] | also measured
C-Kit-D816V: 27-mer C-Kit D816V neoantigen peptide GRITKICDFGLAR[V]IKNDSNYVVKGNA (GRITKICDFGLARVIKNDSNYVVKGNA; listed as Homo sapiens) | activation of CD8-positive cells was observed in 1 donor | immunogenicity as both the HLA Class I epitope and the Class II epitope | those derived from 4 donors were CD4 positive; also recorded: activation of CD4-positive T cells was observed; also recorded: particularly strong ability to activate CD4-positive helper T cells | 5/25 |  | 
EALEYFMKQMNDAHHGGWTTKMDWIFH [WT1, wild-type peptide of PIK3CA-H1047R, reference compound] |  |  |  |  | less than 1% | 
KRAS-G12D: 27-mer KRAS G12D neoantigen peptide MTEYKLVVVGA[D]GVGKSALTIQLIQNH |  |  | activation of CD4-positive T cells was observed; also recorded: particularly strong ability to activate CD4-positive helper T cells | 1/25 |  | frequency of samples in which the peptide had immunogenicity ([1]; samples derived from healthy people, single peptide analysis): 4.0%
NRAS-Q61R: 27-mer NRAS Q61R neoantigen peptide GETCLLDILDTAG[R]EEYSAMRDQYMRT (GETCLLDILDTAGREEYSAMRDQYMRT; listed as Homo sapiens) |  |  | they were all CD4-positive T cells; also recorded: activation of CD4-positive T cells was observed; also recorded: particularly strong ability to activate CD4-positive helper T cells | 3/24 |  | 
PIK3CA-H1047R: 27-mer PIK3CA H1047R neoantigen peptide EALEYFMKQMNDA[R]HGGWTTKMDWIFH (EALEYFMKQMNDARHGGWTTKMDWIFH; listed as Homo sapiens) | activation of CD8-positive cells was also observed | immunogenicity as both the HLA Class I epitope and the Class II epitope | All antigen-specific T cells activated in the 4 donors were CD4 positive; also recorded: activation of CD4-positive T cells was observed; also recorded: particularly strong ability to activate CD4-positive helper T cells | 4/24 | 30.4%±0.9% | 
B1 |  |  |  |  |  | binding result [3]: recognises; binding result [4]: recognises; binding result [5]: recognises; binding result [6]: recognises; binding result [7]: no recognition; binding result [8]: recognises; binding result [9]: recognises; binding result [10]: recognises
